Data taken from patent publication US20160074297A1, “COMBINATION OF PETROSELINIC ACID AND TAURINE FOR ORAL ADMINISTRATION FOR HAIR AGING CONTROL” (NUTRICOS TECHNOLOGIES, priority 2013, published 2016).

Test system: human mononuclear cells
Test: Production of lipoxin A4 in human mononuclear cells in vitro stimulated with PMA/A23187 plus DHA/EPA, quantified by LC-MS
Assay type: cell-based
Conditions: coriander oil 0.25 mg/ml, taurine 3.1 mg/ml; 30 minutes pre-incubation, then 2 hours of stimulation with phorbol myristate 0.05 μM, calcium ionophore 1 μM, DHA and EPA 1 μg/mL; cell supernatant
Protocol: Mononuclear blood cells are cultured under 5% CO2 and at 37° C. in a serum-free medium for macrophages (SFM Macrophage; Invitrogen 12065074) for 24 hours. […] The inflammatory response was then triggered in the presence of phorbol myristate (0.05 μM) and calcium ionophore (1μM) and a lipid substrate mixture composed of docosahexaenoic acid (DHA−1 μg/mL) and eicosapentaenoic acid (EPA-1μg/mL). The supernatants were then collected after 2 hours of stimulation and frozen at −80° C. before preparation for analysis by mass spectrometry. Experimental triplicates (three wells) were prepared per experimental condition. Into each culture plate was placed a control corresponding to cells stimulated with the PMA/A23187 mixture and/or with addition of the equimolar mixture of fatty acids. The frozen supernatants were concentrated by solid-phase extraction (SPE) and taken up in methanol before spectrometric analysis. The analytical method used consists in separating the various analytes by high-pressure liquid chromatography as a function of their retention time and in quantifying them by mass spectrometry. The analyses were performed using an LC 1290 Infinity chain (Agilent Technologies) coupled to a 6460 Triple Quad LC/MS mass spectrometer (Agilent Technologies) equipped with an electrospray ionization source (Jet stream technology) operating in negative mode. […]

NCCS(=O)(=O)O [Taurine]
Level of lipoxin A4 production (% modulation relative to the control): +38%
